Like-named read-outs stand apart in the source and are kept apart here.
What was measured:
Assay type in all cases: in vivo
[1] = system: cotton melon aphid (Aphis gossypii (Glover)); assay: Test F: control of cotton melon aphid through contact and/or systemic means; settings: 144 h
Procedure: (§1) Test compounds were formulated using a solution containing 10% acetone, 90% water and 300 ppm Activator 90® non-ionic surfactant (Loveland Products, Loveland, Colorado, USA). The formulated compounds were applied in 1 mL of liquid through an atomizer nozzle positioned 1.27 cm (0.5 inches) above the top of each test unit. Test compounds were sprayed at the rates indicated, and each test was replicated three times.
For evaluating control of cotton melon aphid (Aphis gossypii (Glover)) through contact and/or systemic means, the test unit consisted of a small open container with a 5-day-old okra plant inside. This was pre-infested with 30-40 insects on a piece of leaf according to the cut-leaf method, and the soil of the test unit was covered with a layer of sand.
Test compounds were formulated and sprayed at 50 and 10 ppm. After spraying, the test units were maintained in a growth chamber for 6 days at 19° C. and 70% relative humidity. Each test unit was then visually assessed for insect mortality.

[2] = system: green peach aphid (Myzus persicae (Sulzer)); assay: Test E: control of green peach aphid through contact and/or systemic means; settings: 144 h
Procedure: as §1
For evaluating control of green peach aphid (Myzus persicae (Sulzer)) through contact and/or systemic means, the test unit consisted of a small open container with a 12-15-day-old radish plant inside. This was pre-infested by placing on a leaf of the test plant 30-40 aphids on a piece of leaf excised from a culture plant (cut-leaf method). The aphids moved onto the test plant as the leaf piece desiccated. After pre-infestation, the soil of the test unit was covered with a layer of sand.
Test compounds were formulated and sprayed at 50 and 10 ppm. After spraying of the formulated test compound, each test unit was allowed to dry for 1 hour and then a black, screened cap was placed on top. The test units were held for 6 days in a growth chamber at 19-21° C. and 50-70% relative humidity. Each test unit was then visually assessed for insect mortality.

[3] = system: corn planthopper (Peregrinus maidis (Ashmead)); assay: Test C: control of corn planthopper through contact and/or systemic means; settings: 144 h, corn plant post-infested with nymphs, assessed after 6 days; for mortality at 50 ppm: sprayed at 50 ppm
Procedure: as §1
For evaluating control of corn planthopper (Peregrinus maidis (Ashmead)) through contact and/or systemic means, the test unit consisted of a small open container with a 3-4-day-old corn (maize) plant inside. White sand was added to the top of the soil prior to application of the test compound.
(§2) Test compounds were formulated and sprayed at 50 and 10 ppm. After spraying of the formulated test compound, the test units were allowed to dry for 1 h before they were post-infested with ˜15-20 nymphs (18-to-21-day-old). A black, screened cap was placed on the top of each test unit, and the test units were held for 6 days in a growth chamber at 22-24° C. and 50-70% relative humidity. Each test unit was then visually assessed for insect mortality.

[4] = system: potato leafhopper (Empoascafabae (Harris)); assay: Test D: control of potato leafhopper through contact and/or systemic means; settings: 144 h
Procedure: as §1
For evaluating control of potato leafhopper (Empoascafabae (Harris)) through contact and/or systemic means, the test unit consisted of a small open container with a 5-6-day-old Soleil bean plant (primary leaves emerged) inside. White sand was added to the top of the soil, and one of the primary leaves was excised prior to application of the test compound.
as §2, with “1 hour” for “1 h”, “with 5 potato leafhoppers (18-to-21-day-old adults).” for “with ˜15-20 nymphs (18-to-21-day-old).”, “of the” for “of each”, “at 20°” for “at 22-24°”, “and 70%” for “and 50-70%”

[5] = sprayed at 50 ppm, pre-infested okra plant, assessed after 6 days, read-out: mortality
[6] = sprayed at 50 ppm, pre-infested radish plant, assessed after 6 days, read-out: mortality
[7] = sprayed at 10 ppm, Soleil bean plant post-infested with adults, assessed after 6 days, read-out: mortality
[8] = sprayed at 50 ppm, Soleil bean plant post-infested with adults, assessed after 6 days, read-out: mortality

CC(=O)NCc1ncc(C2=NOC(c3cccc(C(F)(F)F)c3)(C(F)(F)F)C2)c2ccoc12 (stereo not shown) [Compound 1, N-[[4-[4,5-dihydro-5-(trifluoromethyl)-5-[3-(trifluoromethyl)phenyl]-3-isoxazolyl]furo[2,3-c]pyridin-7-yl]methyl]acetamide]
≥ 80%: mortality at 50 ppm [1, 5] | mortality at 50 ppm [2, 6] | mortality at 50 ppm [3] | mortality at 10 ppm [4, 7] | mortality at 50 ppm [4, 8]

CNC(=O)[C@@H](C)NC(=O)c1cnc(C2=NOC(c3cc(Cl)cc(Cl)c3)(C(F)(F)F)C2)c2sccc12 (stereo partly drawn) [Compound 7, 7-[5-(3,5-dichlorophenyl)-4,5-dihydro-5-(trifluoromethyl)-3-isoxazolyl]-N-[(1R)-1-methyl-2-(methylamino)-2-oxo-ethyl]thieno[2,3-c]pyridine-4-carboxamide]
≥ 80%: mortality at 50 ppm [1] | mortality at 50 ppm ([2]; in Raphanus sativus) | mortality at 10 ppm [4] | mortality at 50 ppm [4]

O=C(NC1CC1)c1cnc(C2=NOC(c3cc(Cl)cc(Cl)c3)(C(F)(F)F)C2)c2sccc12 (stereo not shown) [Compound 11, N-cyclopropyl-7-[5-(3,5-dichlorophenyl)-4,5-dihydro-5-(trifluoromethyl)-3-isoxazolyl]thieno[2,3-c]pyridine-4-carboxamide]
≥ 80%: mortality at 10 ppm [4] | mortality at 50 ppm [4]

O=C(NC1CC1)c1ncc(C2=NOC(c3cc(Cl)c(F)c(Cl)c3)(C(F)(F)F)C2)c2ccoc12 (stereo not shown) [Compound 13, N-cyclopropyl-4-[5-(3,5-dichloro-4-fluorophenyl)-4,5-dihydro-5-(trifluoro-methyl)-3-isoxazolyl]furo[2,3-c]pyridine-7-carboxamide]
≥ 80%: mortality at 50 ppm [1] | mortality at 50 ppm ([2]; in Raphanus sativus) | mortality at 10 ppm [4] | mortality at 50 ppm [4]

O=C(NCC1CC1)c1ncc(C2=NOC(c3cc(Cl)c(F)c(Cl)c3)(C(F)(F)F)C2)c2ccoc12 (stereo not shown) [Compound 14, N-(cyclopropylmethyl)-4-[5-(3,5-dichloro-4-fluorophenyl)-4,5-dihydro-5-(trifluoromethyl)-3-isoxazolyl]furo[2,3-c]pyridine-7-carboxamide]
≥ 80%: mortality at 10 ppm [4] | mortality at 50 ppm [4]

CCC(=O)NCc1ncc(C2=NOC(c3cccc(C(F)(F)F)c3)(C(F)(F)F)C2)c2ccoc12 (stereo not shown) [Compound 23, N-[[4-[4,5-dihydro-5-(trifluoromethyl)-5-[3-(trifluoromethyl)phenyl]-3-isoxazolyl]furo[2,3-c]pyridin-7-yl]methyl]propanamid]
≥ 80%: mortality at 10 ppm ([1]; sprayed at 10 ppm, pre-infested okra plant, assessed after 6 days) | mortality at 50 ppm [1, 5] | mortality at 10 ppm ([2]; sprayed at 10 ppm, pre-infested radish plant, assessed after 6 days) | mortality at 50 ppm [2, 6] | mortality at 10 ppm ([3]; sprayed at 10 ppm) | mortality at 50 ppm [3] | mortality at 10 ppm [4, 7] | mortality at 50 ppm [4, 8]

O=C(NC1CC1)c1cnc(C2=NOC(c3cc(Cl)cc(Cl)c3)(C(F)(F)F)C2)c2ccsc12 (stereo not shown) [Compound 26, N-cyclopropyl-4-[5-(3,5-dichlorophenyl)-4,5-dihydro-5-(trifluoromethyl)-3-isoxazolyl]thieno[3,2-c]pyridine-7-carboxamide]
≥ 80%: mortality at 50 ppm [4]

O=C(NC1CSC1)c1cnc(C2=NOC(c3cc(Cl)cc(Cl)c3)(C(F)(F)F)C2)c2ccsc12 (stereo not shown) [Compound 27, 4-[5-(3,5-dichlorophenyl)-4,5-dihydro-5-(trifluoromethyl)-3-isoxazolyl]-N-3-thietanylthieno[3,2-c]pyridine-7-carboxamide]
≥ 80%: mortality at 50 ppm [4]

CNC(=O)[C@@H](C)NC(=O)c1ncc(C2=NOC(c3cc(Cl)c(F)c(Cl)c3)(C(F)(F)F)C2)c2c1CCC2 (stereo partly drawn) [Compound 30, 4-[5-(3,5-dichloro-4-fluorophenyl)-4,5-dihydro-5-(trifluoromethyl)-3-isoxazolyl]-6,7-dihydro-N-[(1R)-1-methyl-2-(methylamino)-2-oxoethyl]-5H-cyclopenta[c]pyridine-1-carboxamide]
≥ 80%: mortality at 50 ppm [1]
